# Measured values from patent US12276667B2, “Isolation and characterization of the nuclear proteome” (Altius Institute for Biomedical Sciences, priority 2018, dated 2025).
# Test system: IKZF1
# Assay: Nuclear proteome by mass spectrometry (DIA) after cell treatment with thalidomide
# Format: cell-based
# Conditions: cells treated with thalidomide; FIG. 14
# Protocol: First, cells of interest are isolated. This is done by harvesting, homogenizing, washing, and then pelleting the cells of interest. The pellet is then resuspended in a buffer A not comprising polycations (e.g., no spermidine or spermine). NP40 detergent solution is then added to isolate nuclei and cells are spun and are pelleted. Optionally, prior to salt extraction, the pellet is treated with MNase at 37° C. for 5 minutes and is quenched with EDTA. The pellet is resuspended in buffer A and […] NaCl, and then is incubated at 4° C. for 30 minutes. The insoluble chromatin is pelleted for later analysis. The supernatant is used for further analysis.
# 400 ul of 01.% PPS is added to the nuclear pellet of EXAMPLE 1, which is then sonicated at a setting output of 5 for 30 seconds and a protein concentration is determined using A280 reading. The sample is then boiled at 99 C for 5 minutes, is allowed to cool at room temperature, and is then briefly spun down. DTT is added for a final concentration of 5 mM, and is incubated at 60° C. for 30 minutes. Next, IAA is added for a final concentration of 15 mM, and is incubated at room temperature in the dark for 30 minutes. […]
# Data were acquired on a ThermoFisher QExactive-HF instrument operating in DIA mode. […] Peptide quantification was performed using EncyclopeDIA software. […]
structure (smiles),measurement,value
O=C1CCC(N2C(=O)c3ccccc3C2=O)C(=O)N1 (stereo not shown) [thalidomide],pharmacological degradation of IKZF1 after cell treatment,degraded
